Counter-ions that a name gives are not always drawn. A value given as a limit tells only on which side of the number the result lay.

This assay deals with Vps34 (Homo sapiens (Human), UniProt Q8NEB9). Particulars: read-out: Assay C VPS34 IC50.
Chain of Vps34 (Q8NEB9 whole entry): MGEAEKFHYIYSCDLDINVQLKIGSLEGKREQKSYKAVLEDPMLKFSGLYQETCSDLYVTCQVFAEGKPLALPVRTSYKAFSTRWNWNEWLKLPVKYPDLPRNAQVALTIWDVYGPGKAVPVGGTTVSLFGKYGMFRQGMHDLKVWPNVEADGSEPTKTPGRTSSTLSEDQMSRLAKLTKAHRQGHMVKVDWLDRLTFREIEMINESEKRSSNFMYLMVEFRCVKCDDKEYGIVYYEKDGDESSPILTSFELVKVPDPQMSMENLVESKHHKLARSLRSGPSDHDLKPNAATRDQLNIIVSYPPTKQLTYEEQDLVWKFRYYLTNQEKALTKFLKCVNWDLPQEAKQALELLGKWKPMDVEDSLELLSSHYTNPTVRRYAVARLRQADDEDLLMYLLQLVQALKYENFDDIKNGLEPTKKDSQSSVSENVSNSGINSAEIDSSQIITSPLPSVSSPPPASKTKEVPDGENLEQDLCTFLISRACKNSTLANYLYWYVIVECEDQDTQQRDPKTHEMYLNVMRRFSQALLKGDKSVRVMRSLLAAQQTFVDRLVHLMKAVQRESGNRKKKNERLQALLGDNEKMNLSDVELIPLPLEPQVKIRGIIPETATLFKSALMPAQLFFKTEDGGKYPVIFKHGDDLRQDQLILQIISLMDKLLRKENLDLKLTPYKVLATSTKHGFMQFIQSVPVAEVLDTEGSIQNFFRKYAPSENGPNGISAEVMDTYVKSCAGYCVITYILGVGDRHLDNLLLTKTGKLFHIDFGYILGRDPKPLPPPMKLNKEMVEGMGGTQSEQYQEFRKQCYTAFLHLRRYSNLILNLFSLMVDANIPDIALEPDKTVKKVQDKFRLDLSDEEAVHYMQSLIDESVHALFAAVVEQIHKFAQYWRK
The term IC50 denotes the concentration needed to halve the response being measured. As to `Cc1cc(-c2cc(-c3cc(S(=O)(=O)N4CC[C@@H](O)C4)ccc3C)cnc2N)on1` [Example 37.24, (R)-1-((3-(6-Amino-5-(3-methylisoxazol-5-yl)pyridin-3-yl)-4-methylphenyl)sulfonyl)pyrrolidin-3-ol], the IC50 is above 10 µM.
The figure for `Cc1ncc(-c2cc(-c3cc(S(=O)(=O)NCC(F)F)ccc3C)cnc2N)o1` [Example 104.10, 3-(6-amino-5-(2-methyloxazol-5-yl)pyridin-3-yl)-N-(2,2-difluoroethyl)-4-methylbenzenesulfon-amide] is 1.5 µM; for `Cc1cc(-c2cc(-c3cc(S(=O)(=O)NCCC4(O)CCCCC4)ccc3C)cnc2N)on1` [Example 37.30, 3-(6-Amino-5-(3-methylisoxazol-5-yl)pyridin-3-yl)-N-(2-(1-hydroxycyclohexyl)ethyl)-4-methylbenzenesulfonamide] it is above 10 µM.
Consider `CCN1CCC[C@H]1CNS(=O)(=O)c1ccc(C)c(-c2cnc(N)c(-c3cc(C)no3)c2)c1` [Example 37.33, (S)-3-(6-Amino-5-(3-methylisoxazol-5-yl)pyridin-3-yl)-N-((1-ethylpyrrolidin-2-yl)methyl)-4-methylbenzenesulfonamide], for which the IC50 was above 10 µM.
The figure for `Cc1cc(-c2cc(-c3cc(S(=O)(=O)NC4CCOCC4)ccc3C)cnc2N)on1` [Example 37.8, 3-(6-Amino-5-(3-methylisoxazol-5-yl)pyridin-3-yl)-4-methyl-N-(tetrahydro-2H-pyran-4-yl)benzenesulfonamide] is above 10 µM.
The figure for `Cc1cc(-c2cc(-c3cc(S(=O)(=O)NCC4(O)CCCCC4)ccc3C)cnc2N)on1` [Example 37.9] is above 10 µM; for `Cc1ccc(S(=O)(=O)NCC(C)(C)O)cc1-c1cnc(N)c(-c2cnco2)c1` [Example 94a, 3-(6-amino-5-(oxazol-5-yl)pyridin-3-yl)-N-(2-hydroxy-2-methylpropyl)-4-methylbenzenesulfonamide] it is above 10 µM; for `Cc1cnc(-c2cc(-c3cc(S(=O)(=O)NCC(C)(C)O)ccc3C)cnc2N)s1` [Example 90, 3-(6-Amino-5-(5-methylthiazol-2-yl)pyridin-3-yl)-N-(2-hydroxy-2-methylpropyl)-4-methylbenzenesulfonamide] it is above 10 µM.
The figure for `Cc1cc(-c2cc(-c3cc(S(=O)(=O)NCC4(O)CCCC4)ccc3C)cnc2N)on1` [Example 53, 3-(6-Amino-5-(3-methylisoxazol-5-yl)pyridin-3-yl)-N-((1-hydroxycyclopentyl)methyl)-4-methylbenzenesulfonamide] is above 10 µM.
Take `Cc1cc(-c2cc(-c3cc(S(=O)(=O)NCC4(O)CC4)ccc3C)cnc2N)on1` [Example 19.10, 3-(6-amino-5-(3-methylisoxazol-5-yl)pyridin-3-yl)-N-((1-hydroxycyclopropyl)methyl)-4-methylbenzenesulfon-amide trifluoroacetic acid salt]: the IC50 was above 10 µM.
For `Cc1noc(-c2cc(-c3cc(S(=O)(=O)NCC(C)(C)O)c(Cl)cc3C)cnc2N)n1` [Example 89, 5-(6-Amino-5-(3-methyl-1,2,4-oxadiazol-5-yl)pyridin-3-yl)-2-chloro-N-(2-hydroxy-2-methylpropyl)-4-methylbenzenesulfonamide], the half-inhibitory concentration (IC50) is above 10 µM.
As for `Cc1noc(-c2cc(-c3cc(S(=O)(=O)NC[C@H]4CCOC4)ccc3C)cnc2N)n1` [Example 86, (R)-3-(6-Amino-5-(3-methyl-1,2,4-oxadiazol-5-yl)pyridin-3-yl)-4-methyl-N-((tetrahydrofuran-3-yl)methyl)benzenesulfonamide], the IC50 is above 10 µM.
On to `Cc1ncc(-c2cc(-c3cc(S(=O)(=O)NCC(C)(C)O)ccc3C)cnc2N)o1` [Example 6, 3-(6-Amino-5-(2-methyloxazol-5-yl)pyridin-3-yl)-N-(2-hydroxy-2-methylpropyl)-4-methylbenzenesulfonamide], for which the IC50 was above 10 µM.

The record behind these values is patent US10112926B2 (priority 2014, dated 2018).
